Test results published in PMC11172375, “Preclinical Evaluation of Biodistribution and Toxicity of [^211At]PSMA-5 in Mice and Primates for the Targeted Alpha Therapy against Prostate Cancer” (International Journal of Molecular Sciences, 2024).
Entries after “also recorded” stand apart in the source; their conditions may differ.

Key:
[1] = Hematological examination in monkeys; type: in vivo, cynomolgus monkeys; details: for %Lymph / Hb / Ht / Platelet / RBC / WBC: monkeys, 9 MBq/kg i.v.
Protocol: (§1) [^211At]PSMA-5 was administered intravenously to 25 mice, and its biodistribution was evaluated. For the toxicity study, three doses of [^211At]PSMA-5 (5, 12, and 35 MBq/kg, single dose) or saline were intravenously administered to 10 mice/group for the main evaluation point on day 1, and 5-mice/group for recovery evaluation on day 14, adhering to the ICH M3 (R2) guidelines. The dosage was determined based on our previous study using [^211At]NaAt. The monkeys were monitored for 24 h post-administration of [^211At]PSMA-5 (9 MBq/kg).
(§2) Monkeys were anesthetized with intramuscular administration of ketamine (10 mg/kg) and xylazine (0.5 mg/kg) with isoflurane inhalation anesthesia. Planar and Single Photon Emission Computed Tomography (SPECT) imaging was performed in monkeys using a γ-camera system (E-cam, Siemens, Erlangen, Germany) immediately after administration to 1 h and at 3 and 24 h post-administration of [^211At]PSMA-5 (9 MBq/kg), targeting the X-rays emitted from the daughter nuclide ^211Po (energy window: 79 keV ± 20%). Subsequent image analysis was performed by setting the regions of interest using Osirix MD software (Version 13, Pixmeo SARL, Bernex, Switzerland) and PMOD software (Version 3.903, PMOD Technologies, Fällanden, Switzerland). Blood samples were obtained pre-administration and at 1, 3, and 24 h post-administration, followed by euthanasia via bloodletting at 24 h.
(§3) A blood cell counter was used for the measurements (CB-1010; ARKRAY, Inc., Kyoto, Japan). Red blood cell count (RBC), hemoglobin concentration (Hb), hematocrit (Ht), white blood cell count (WBC), platelet count (platelet), lymphocytes (%Lymph), monocytes (%Mon), and granulocytes (%Gra) were calculated. Plasma was analyzed using a dry clinical chemistry analyzer (Spotchem D-00 QR D-02; ARKRAY, Inc., Kyoto, Japan). The levels of aspartate aminotransferase (AST), alanine aminotransferase (ALT), gamma-glutamyl transpeptidase (γ-GTP), lactate dehydrogenase (LDH), alkaline phosphatase (ALP), creatine kinase (CK), amylase (AMY), total bilirubin (TBIL), creatinine (CRE), urea nitrogen (BUN), glucose (GLU), total protein (TP), albumin (ALB), total cholesterol (TCHO), triglyceride (TG), and electrolytes (Na, K, and Cl) were measured.

[2] = Blood chemistry analysis in monkeys; type: in vivo, cynomolgus monkeys; details: for ALB / ALP / ALT / AMY / AST / BUN / CK / CRE / K / LDH / Na / TBIL / TCHO / TG / TP / γ-GTP / GLU: monkeys, 9 MBq/kg i.v.
Protocol: as §1, §2, §3

[3] = Extended single-dose toxicity study in mice: general condition, body weight, organ weight; type: in vivo, ICR mice; details: for testes organ weight: day 14
Protocol: This study was conducted in compliance with the Animal Experiment Regulations and the Act on Welfare and Management of Animals of the Osaka University Graduate School of Medicine (approval numbers: 04-070 and 04-094). Normal male ICR mice (n = 85, 5–6 weeks old, body weight: 29.4 ± 2.3 g) and cynomolgus monkey (n = 2, body weight: 2.10 and 2.05 kg) were purchased from Japan SLC Inc. (Hamamatsu, Japan) and Hamri Co., Ltd. (Ibaraki, Japan), respectively. The animals were housed under a 12 h light/12 h dark cycle. General condition and body weight were monitored.
as §1
The brain, salivary gland, thyroid, heart, lungs, liver, kidney, adrenal gland, pancreas, spleen, thymus, stomach, small intestine, large intestine, bladder, prostate, and testes were collected on days 1 or 14 in mice and at 24 h in monkeys. Additionally, the pituitary gland, tongue, trachea, esophagus, mesenteric lymph nodes, epididymis, seminal vesicles, skin, mammary glands, spinal cord, bone, bone marrow (femur), eyeball, and optic nerve were collected from the mice. After fixation, paraffin sections were prepared and stained with hematoxylin and eosin (HE). All the specimens were evaluated by an expert in toxic pathology using an integrated fluorescence microscope (BZ-X810; Keyence Corporation. Osaka, Japan). In mice, the brain, salivary glands, heart, lungs, liver, gallbladder, spleen, kidneys, and testes were weighed according to ICH S4 guideline.

[4] = TLC metabolite analysis of blood samples, monkeys; type: in vivo; details: cynomolgus monkeys, plasma
Protocol: as §2
The blood samples were centrifuged at 3000 rpm for 5 min, and the resulting plasma was mixed with twice the volume of ethanol, then agitated vigorously. The supernatants were analyzed by thin-layer chromatography (TLC).

[5] = 24 hrs, might be affected by hemolysis

## O=C(O)CC[C@H](NC(=O)N[C@@H](CCCCNC(=O)[C@@H](Cc1ccc2ccccc2c1)NC(=O)c1ccc(CNC(=O)[C@@H](CCC(=O)O)NC(=O)[C@@H](CCC(=O)O)NC(=O)Cc2ccc([211At])cc2)cc1)C(=O)O)C(=O)O [[^211At]PSMA-5]
[1]; cynomolgus monkeys, 9 MBq/kg, 24 h after administration
  leukopenia (mainly lymphopenia): mild but significant leukopenia
[1]; 1 h
  %Lymph: 44.0 ± 16.0%
  Hb: 10.3 ± 1.4 g/dL
  Ht: 32.9 ± 4.8%
  Platelet: 263.7 ± 33.0 10^3 cell/µL
  RBC: 4.30 ± 0.30 10^6 cell/µL
  WBC: 10.1 ± 0.7 10^3 cell/µL
[1]; 3 h
  %Lymph: 52.0 ± 4.5%
  Hb: 11.2 ± 0.8 g/dL
  Ht: 35.4 ± 2.5%
  Platelet: 306.8 ± 41.2 10^3 cell/µL
  RBC: 4.70 ± 0.00 10^6 cell/µL
  WBC: 6.7 ± 1.4 10^3 cell/µL
[1]; 24 h
  %Lymph: 23.7 ± 1.1%
  Hb: 9.9 ± 0.5 g/dL
  Ht: 31.8 ± 1.5%
  Platelet: 269.7 ± 60.8 10^3 cell/µL
  RBC: 4.20 ± 0.10 10^6 cell/µL
  WBC: 5.3 ± 0.8 10^3 cell/µL
[2]; cynomolgus monkeys, 9 MBq/kg
  LDH levels: elevated in both monkeys
  renal function or electrolyte levels: No significant changes
[2]; cynomolgus monkeys, 9 MBq/kg, 24 h post-administration
  monkeys with a mild increase in amylase: 1/2
[2]; 1 hr
  ALB: 2.5 ± 0.4 g/dL
  ALP: 835 ± 173.6 IU/L
  ALT: 11.3 ± 1.8 IU/L
  AMY: 291 ± 62.2 IU/L
  AST: 13.3 ± 4.6 IU/L
  BUN: 24.8 ± 2.5 mg/dL
  CK: 496 ± 321.4 IU/L
  CRE: 0.5 ± 0.2 mg/dL
  K: 4.3 ± 0.2 mEq/L
  LDH: 231 ± 27.9 IU/L
  Na: 140 ± 2.8 mEq/L
  TBIL: 0.3 ± 0.1 mg/dL
  TCHO: 84 ± 24 mg/dL
  TG: 25.5 ± 0.7 mg/dL
  TP: 3.6 ± 0.4 g/dL
  γ-GTP: 61.8 ± 8.1 IU/L
[2]; 1 hr, suggests contamination from the infusion fluid
  GLU: 309 ± 177 mg/dL
[2]; 3 hrs
  ALB: 2.5 ± 0.1 g/dL
  ALP: 890 ± 47.4 IU/L
  ALT: 12 ± 2.8 IU/L
  AMY: 342 ± 38.2 IU/L
  BUN: 27 ± 1.4 mg/dL
  CK: 522 ± 101.8 IU/L
  CRE: 0.75 ± 0.21 mg/dL
  GLU: 62 ± 56.6 mg/dL
  K: 4.9 ± 0.4 mEq/L
  LDH: 255 ± 4.9 IU/L
  Na: 143 ± 0 mEq/L
  TBIL: 0.3 ± 0.0 mg/dL
  TCHO: 91 ± 17 mg/dL
  TG: 28 ± 4.2 mg/dL
  TP: 3.7 ± 0.1 g/dL
  γ-GTP: 66.5 ± 19.1 IU/L
[2]; 24 hrs
  ALB: 2.7 ± 0 g/dL
  ALP: 768 ± 34.4 IU/L
  ALT: 24.8 ± 21 IU/L
  AMY: 565 ± 197 IU/L
  BUN: 35.7 ± 2.4 mg/dL
  CK: 713 ± 293.9 IU/L
  CRE: 0.7 ± 0.0 mg/dL
  GLU: 77.7 ± 1.4 mg/dL
  K: 4 ± 0.2 mEq/L
  Na: 146 ± 3.1 mEq/L
  TBIL: 0.7 ± 0.3 mg/dL
  TCHO: 90.7 ± 0.5 mg/dL
  TG: 28.7 ± 4.7 mg/dL
  TP: 4.2 ± 0.4 g/dL
  γ-GTP: 65 ± 17.9 IU/L
[2]; [5]
  AST: 38.7 ± 19.3 IU/L
  LDH: 471 ± 30.2 IU/L
[3]; converted from mice
  STD10 in human after body surface area conversion: > 2.8 MBq/kg
[3]; mice, 12 MBq/kg, day 5
  body weight compared to the control: significant decrease in body weight
[3]; mice, 12 MBq/kg
  testes organ weight: 0.18 ± 0.02 g
[3]; mice, 35 MBq/kg, day 10
  body weight compared to the control: significant decrease in body weight
[3]; mice, 35 MBq/kg
  testes organ weight: 0.17 ± 0.003 g
[3]; mice, highest dose 35 MBq/kg, 14-day observation
  severe toxicity or death: No severe toxicity or death was observed; also recorded: no severe toxicity
[3]; mice, single i.v. dose
  STD10 (dose that causes severe toxicity in 10% of test animals): exceed 35 MBq/kg
[4]
  metabolites in blood samples (TLC): no metabolites were detected
